The results in this text go back to patent publication US10849915B2, “Methods for treating inflammatory bowel disease using prostate specific membrane antigen (PSMA) inhibitors” (The Johns Hopkins University, priority 2014, dated 2020).

One data set concerns DSS-induced colitis. Briefly: DSS-induced murine model of colitis. It is filed as in vivo, mice (C57/B6). An excerpt:
DSS-induced colitis model was generated as described previously (Alex et al., 2009; Alex et al., 2010). […] The fact that mutations in either IL-10 or IL-10 receptors in human lead to spontaneous Crohn's disease at very early age (usually less than 1 year old) (Glocker et al., 2011), further emphasize the critical role of IL-10 signaling pathway in its anti-inflammatory and immune-modulatory effects in the gut and the homeostasis of healthy gut.

The target of another data set is T1, PSMA (Mus musculus, UniProt O35409).
T1 construct: from tissue; host or cells: colonic or cecal mucosa of C57/B6 mice with DSS-induced colitis (sonicated tissue lysate supernatant)
Kind of data set: GCPII (PSMA) ex vivo activity assay on mucosa extract of DSS colitis mice. Format: biochemical. The settings on record: DSS-treated mice, extract from mucosa; FIG. 4. The protocol:
On the day of the ex vivo experiment, the tissues were weighed and immersed in 0.5 ml of ice-cold 50 mM Tris Buffer (pH 7.7 at RT). While on ice, each tissue was sonicated for 30-60 seconds (medium output, 60) via use of a Kontes Ultrasonic Cell Disrupter. After a 2 min spin at 13,000 rpm, supernatants were analyzed for protein content (Dc Protein Assay Kit; Bio Rad). NAAG-hydrolyzing activity measurements were carried out, based on published procedures Robinson et al., 1987; Rojas et al., 2002). Briefly, the reaction mixture (total volume of 50 μL) contained NAA[3H]G (70 nM, 50 Ci/mmol) and tissue lysates (7 concentrations each, tested in quadruplicate), in Tris-HCl (pH 7.4, 40 mM) containing 1 mM CoCl2. Assay standards were comprised of human recombinant GCPII enzyme (40-200 pM, final). The reaction was carried out at 37° C. for 40-45 min and stopped with ice-cold sodium phosphate buffer (pH 7.4, 0.1 M, 50 μL). Blanks were obtained by incubating the reaction mixture in the absence of enzyme source. A 90 μL aliquot from each terminated reaction was transferred to a well in a 96-well spin column containing AG1X8 ion-exchange resin; the plate was centrifuged at 1500 rpm for 5 min using a Beckman GS-6R centrifuge equipped with a PTS-2000 rotor. […] The radioactivity corresponding to [3H]-G was determined with a scintillation counter (Topcount NXT, Packard, counting efficiency 80%). […]

The subject of data set [1] is spontaneous colitis in IL-10 KO mice. Kind of data set: IL-10 knockout mice with spontaneous colitis. It is filed as in vivo, mice (C57/B6).
For data set [2] the following is noted: 2-PMPA 100 mg/kg i.p., daily for 8 days, DSS mice, 2 h after dosing on day 8.
Procedure: Blood and colonic mucosa were collected for drug PK analysis. Plasma was generated from blood by centrifugation and all samples were stored at −80° C. until further analysis. Concentrations of inhibitors in plasma and tissue were determined via LC/MS/MS as described previously (Rais et al., 2013). Briefly, 2-PMPA was extracted from plasma and tissue by protein precipitation with 5× methanol containing 2-(phosphonomethyl) succinic acid (2-PMSA; 1 μM) as an internal standard. The samples were vortexed (30 s) and centrifuged (10,000 g for 10 min). Supernatant was dried under a gentle stream of nitrogen at 45° C. and the residue was reconstituted with 100 μL of acetonitrile and vortexed. 50 μL of derivatizing agent N-tert-Butyldimethysilyl-N-methyltrifluoro-acetamide (MTBSTFA) was added to microcentrifuge tubes, vortexed, and heated at approximately 60° C. for 40 min. At the end of 40 min, the derivatized samples were analyzed via LC/MS/MS. Chromatographic analysis was performed using an Accela™ ultra high-performance system consisting of an analytical pump, and an autosampler coupled with TSQ Vantage mass spectrometer (Thermo Fisher Scientific Inc., Waltham Mass.). […] The [M+H]+ ion transitions of derivatized 2-PMPA at m/z 683.0>551.4 and that of the internal standard at m/z 669.0>537.2 were monitored with the total run time of 5 min. […]

T1 sequence (O35409 whole entry): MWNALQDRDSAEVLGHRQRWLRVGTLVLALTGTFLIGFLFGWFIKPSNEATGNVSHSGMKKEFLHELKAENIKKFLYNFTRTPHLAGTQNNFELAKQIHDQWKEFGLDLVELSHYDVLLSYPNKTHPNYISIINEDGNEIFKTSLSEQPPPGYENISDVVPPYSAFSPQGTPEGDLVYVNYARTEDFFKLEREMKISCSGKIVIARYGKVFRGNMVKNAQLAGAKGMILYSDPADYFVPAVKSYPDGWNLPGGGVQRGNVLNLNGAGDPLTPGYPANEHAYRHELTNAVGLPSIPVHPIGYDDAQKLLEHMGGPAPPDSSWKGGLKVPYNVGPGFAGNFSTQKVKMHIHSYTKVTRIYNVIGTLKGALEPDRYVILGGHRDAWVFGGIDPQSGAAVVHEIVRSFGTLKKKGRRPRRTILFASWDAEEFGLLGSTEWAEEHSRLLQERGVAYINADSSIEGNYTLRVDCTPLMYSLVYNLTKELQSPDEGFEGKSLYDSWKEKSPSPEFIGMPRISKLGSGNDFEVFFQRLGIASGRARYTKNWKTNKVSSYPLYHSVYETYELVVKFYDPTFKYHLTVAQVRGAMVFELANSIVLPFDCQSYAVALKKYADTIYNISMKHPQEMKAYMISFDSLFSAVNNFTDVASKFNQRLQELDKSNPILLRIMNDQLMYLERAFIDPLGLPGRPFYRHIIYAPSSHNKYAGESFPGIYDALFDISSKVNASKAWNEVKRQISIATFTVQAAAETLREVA

As to `O=C(O)CCC(CP(=O)(O)O)C(=O)O` (stereo not drawn) [2-PMPA, 2-(phosphonomethyl)-pentanedioic acid], the “Disease activity index (DAI)” value with DSS-induced colitis (DSS 2.5%, 7 days in drinking water, 2-PMPA 100 mg/kg given simultaneously, vs vehicle, P<0.05, FIG. 3) is “ameliorates disease activity”. Also, the “size and weight of spleen” value with DSS-induced colitis (DSS-induced murine model of colitis, FIG. 5) is reported as “reduces”. Moreover, the spleen inflammation entry in the data set with DSS-induced colitis (mice with DSS-colitis, FIG. 5) was “significantly reduced”. The “PSMA activity in the colonic and cecal mucosa” value on PSMA is “potently inhibited”. Further, in data set [1] (2 of the 20 IL-10 KO mice treated, 100 mg/kg for 2 weeks, FIG. 6D), the “mice with complete retraction of prolapse” value was 10%. For the same compound, in data set [1] (IL-10 KO mice, 3 month old, 2-PMPA 100 mg/kg for 2 weeks, FIGS. 6A-6B), the “disease severity (macroscopic disease, colonic hypotrophy, stool consistency)” value is on record as “significantly reduced”. For the same compound, in data set [1] (compared to untreated control IL-10 KO mice, FIG. 6C), the “body weight of prolapse-retracting mice” value is “increased dramatically”. The “2-PMPA concentration in plasma and colon” value in data set [2] is “approximately 25 μM”.
Turning to `CC(C)OC(=O)OCOC(=O)C(CCC(=O)O)CP(=O)(OCOC(=O)OC(C)C)OCOC(=O)OC(C)C` (stereo not drawn) [Tris-POC-2-PMPA], the “colon shortening of DSS-colitis mice” value with DSS-induced colitis (oral administration, n=5 per group, P 0.06, not statistically significant, FIG. 9) is recorded as “reversed”.
